For data set [1], the system named is Sk-Mel-2 melanoma cell line. Description: Cell viability assay (ATP quantitation). It counts as cell-based, human. To be noted: 50 nM, 5 days (120 hrs), vs non-targeting control. The procedure, abridged:
(§1)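 Luminescence readout of cellular ATP, taken 3 days post-transfection for synergy experiments or 5 days for ASO alone. Oligonucleotides (esiRNA, siRNA, ASO GapmeRs) were delivered at 50 nM final unless noted, via Lipofectamine 3000, optionally combined with MEKi.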

The test system of data set [2] is AV5 primary melanoma cell line. As to the kind of experiment: Cell viability assay (ATP quantitation). It is filed as cell-based, human. To be noted: 50 nM, 5 days (120 hrs), vs non-targeting control. The essentials: as §1
For data set [3], the system named is VMM39 melanoma cell line. Description: Cell viability assay (ATP quantitation). The following applies: 50 nM, 5 days (120 hrs), vs non-targeting control. It counts as cell-based, human. The essentials: as §1
Data set [4] deals with WM1366 melanoma cell line. As to the kind of experiment: Cell viability assay (ATP quantitation). It counts as cell-based, human. To be noted: 50 nM, 5 days (120 hrs), vs non-targeting control. The procedure, abridged:
as §1

Data set [5] has as its system Sk-Mel-28 melanoma cell line. As to the kind of experiment: Cell viability assay (ATP quantitation). It is filed as cell-based, human. To be noted: 50 nM, 5 days (120 hrs), vs non-targeting control. The procedure, abridged: as §1
Data set [6] concerns WM3629 melanoma cell line. As to the kind of experiment: Cell viability assay (ATP quantitation). It is filed as cell-based, human. The following applies: 50 nM, 5 days (120 hrs), vs non-targeting control. The procedure, abridged:
as §1

Data set [7] deals with D04 melanoma cell line. Description: Cell viability assay (ATP quantitation). It counts as cell-based, human. The following applies: 50 nM, 5 days (120 hrs), vs non-targeting control. The essentials:
as §1

Data set [8] deals with WM3211 melanoma cell line. Description: Cell viability assay (ATP quantitation). It counts as cell-based, human. To be noted: 50 nM, 5 days (120 hrs), vs non-targeting control. The essentials: as §1
The test system of data set [9] is MM415 melanoma cell line. Description: Cell viability assay (ATP quantitation). It counts as cell-based, human. To be noted: 50 nM, 5 days (120 hrs), vs non-targeting control. The procedure, abridged: as §1
The subject of data set [10] is Hs852.T primary melanoma cell line. As to the kind of experiment: Cell viability assay (ATP quantitation). It is filed as cell-based, human. The following applies: 50 nM, 5 days (120 hrs), vs non-targeting control. The essentials:
as §1

The subject of data set [11] is Sk-Mel-2-RM trametinib resistant melanoma cell line. As to the kind of experiment: Cell viability assay (ATP quantitation). To be noted: 50 nM, 5 days, vs non-targeting control. It counts as cell-based. An excerpt:
(§2) Human melanoma cell line VMM39 was purchased from American Type Culture Collection (ATCC). Human melanoma cell lines D04, MM415, WM1366, WM3629, WM3211, Sk-Mel-2 and Sk-Mel-28 were a generous gift from Boris Bastian at the University of California, San Francisco. Primary human melanoma cell line Hs852.T was purchased from the Cell Culture Core Facility (CCCF) at the University of California, San Francisco. Primary human melanoma cell line AV5 was obtained from metastasis of a melanoma patient. All experimental protocols were approved by UCSF Human Research Protection Program Institutional Review Board (IRB #12-0948), all patients signed informed consent, and methods were carried out in accordance with relevant guidelines and regulations. Resistant cell lines DO4RM, MM415RM, Sk-Mel-2RM and WM3629RM were established as previously described. [Sanlorenzo, M. et al., The lincRNA MIRAT binds to IQGAPI and modulates the MAPK pathway in NRAS mutant melanoma. Sci Rep 8, 10902 (2018).] Primary human melanocytic cell lines (PHM) from infant foreskin of five healthy donors were available in our cell repository and pooled. Melanoma cell lines were maintained in RPMI 1640 media supplemented with 10% (vol/vol) heat inactivated fetal bovine serum. Melanocytes were maintained in M254 medium with HMGS supplements (1× final solution). All cell lines were incubated at 37° C. under 5% CO2.
(§3) EsiRNA, siRNA and ASO GapmeRs were transfected in a final concentration of 50 nM unless mentioned otherwise and the transfection reagent Lipofectamine 3000 (2 ul/ml) was added according to the manufacturer's instructions.
(§4) Dependent on cell doubling time, 0.7-2×10^^3 cells were seeded in 96 well plates. 1 day after seeding cells were incubated in media with oligonucleotide concentration and/or MEKi and transfection reagent. 3 (synergy experiments) or 5 (solely ASO) days after transfection Total luminescence was measured on the SynergyHT plate reader (BioTek) using Gen5 software.

Data set [12] concerns MM415RM trametinib resistant melanoma cell line. Description: Cell viability assay (ATP quantitation). The following applies: 50 nM, 5 days, vs non-targeting control. It counts as cell-based.
From the text: as §2, §3, §4

In data set [13] the test system is WM3629RM trametinib resistant melanoma cell line. As to the kind of experiment: Cell viability assay (ATP quantitation). It counts as cell-based. The following applies: 50 nM, 5 days, vs non-targeting control.
From the text: as §2, §3, §4

Data set [14] relates to D04RM trametinib resistant melanoma cell line. As to the kind of experiment: Cell viability assay (ATP quantitation). It counts as cell-based. The following applies: 50 nM, 5 days, vs non-targeting control.
From the text: as §2, §3, §4

Data set [15] has as its system MaMel30 melanoma cell line. As to the kind of experiment: Cell viability assay (ATP quantitation). It is filed as cell-based. To be noted: 50 nM, 5 days, vs non-targeting control. The essentials:
as §1

Data set [16] concerns WM3060 melanoma cell line. As to the kind of experiment: Cell viability assay (ATP quantitation). It counts as cell-based. The following applies: 50 nM, 5 days, vs non-targeting control. The essentials:
as §1

Data set [17] relates to SW1271 lung cancer cell line. Description: Cell viability assay (ATP quantitation). It is filed as cell-based. To be noted: 50 nM, 5 days, vs non-targeting control. The essentials:
as §1

The test system of data set [18] is HCT116 colon carcinoma cell line. As to the kind of experiment: Cell viability assay (ATP quantitation). It counts as cell-based. The following applies: 50 nM, 5 days, vs non-targeting control. The essentials: as §1
For data set [19], the system named is U138-MG Glioblastoma cell line. Description: Cell viability assay (ATP quantitation). It counts as cell-based. To be noted: 50 nM, 5 days, vs non-targeting control. The essentials:
as §1

The test system of data set [20] is A-172 Glioblastoma cell line. As to the kind of experiment: Cell viability assay (ATP quantitation). It counts as cell-based. The following applies: 50 nM, 5 days, vs non-targeting control. The procedure, abridged:
as §1

Data set [21] concerns Sk-N-AS Neuroblastoma cell line. As to the kind of experiment: Cell viability assay (ATP quantitation). To be noted: 50 nM, 5 days, vs non-targeting control. It counts as cell-based. The procedure, abridged: as §1
For data set [22], the system named is L363 multiple myeloma cell line. Description: Cell viability assay (ATP quantitation). It is filed as cell-based. To be noted: 50 nM, 5 days, vs non-targeting control. The procedure, abridged: as §1
Data set [23] relates to H929 multiple myeloma cell line. As to the kind of experiment: Cell viability assay (ATP quantitation). It counts as cell-based. To be noted: 50 nM, 5 days, vs non-targeting control. The essentials: as §1
The test system of data set [24] is Sk-Mel-5 melanoma cell line. Description: Cell viability assay (ATP quantitation). It is filed as cell-based. The following applies: 50 nM, 5 days, vs non-targeting control. The procedure, abridged: as §1
In data set [25] the test system is H2228 lung cancer cell line. Description: Cell viability assay (ATP quantitation). It is filed as cell-based. The following applies: 50 nM, 5 days, vs non-targeting control. The essentials: as §1
The test system of data set [26] is XG-1 multiple myeloma cell line. As to the kind of experiment: Cell viability assay (ATP quantitation). It is filed as cell-based. The following applies: 50 nM, 5 days, vs non-targeting control. The essentials: as §1
Data set [27] relates to U87-MG Glioblastoma cell line. As to the kind of experiment: Cell viability assay (ATP quantitation). It is filed as cell-based. To be noted: 50 nM, 5 days, vs non-targeting control. The procedure, abridged: as §1
The subject of data set [28] is U20S osteosarcoma cell line. As to the kind of experiment: Cell viability assay (ATP quantitation). It counts as cell-based. The following applies: 50 nM, 5 days, vs non-targeting control. The essentials:
as §1

Data set [29] concerns T98G Glioblastoma cell line. As to the kind of experiment: Cell viability assay (ATP quantitation). It counts as cell-based. The following applies: 50 nM, 5 days, vs non-targeting control. The essentials:
as §1

Data set [30] relates to AV1 melanoma cell line. As to the kind of experiment: Cell viability assay (ATP quantitation). The following applies: 50 nM, 5 days, vs non-targeting control. It counts as cell-based. The procedure, abridged:
as §1

For data set [31], the system named is H82 lung cancer cell line. As to the kind of experiment: Cell viability assay (ATP quantitation). It counts as cell-based. To be noted: 50 nM, 5 days, vs non-targeting control. The essentials: as §1
Data set [32] deals with SW480 colon carcinoma cell line. Description: Cell viability assay (ATP quantitation). It is filed as cell-based. To be noted: 50 nM, 5 days, vs non-targeting control. The procedure, abridged:
as §1

Data set [33] concerns AV4 melanoma cell line. Description: Cell viability assay (ATP quantitation). It counts as cell-based. To be noted: 50 nM, 5 days, vs non-targeting control. The procedure, abridged: as §1
The subject of data set [34] is D04 xenograft tumors. As to the kind of experiment: Intratumoral in vivo treatment, D04 xenograft. The following applies: D04 tumors in mice; 400 μg twice a week into the tumor mass, no transfection reagent; vs non-targeting control ASO. Here is the method: (§5) In 4- to 6-week-old NOD.Cg-Prkdcscid Il2rgtm1Wjl/SzJ mice D04, cells in 150 1 of PBS and 501 of Matrigel were subcutaneously injected on the right posterior dorsal flank of 4- to 6-week-old homozygous nude Foxn1nu/Foxn1nu mice (Stock.no 007850). Mice were obtained from JAX®. Tumor size was measured using a digital caliper and the formula 0.5×(length×(width^2)) was used to calculate tumor volume. Mice were treated twice a week with 400 μg of (SEQ ID NO: 16) or non-targeting control-ASO. No transfection reagent was co-applied. ASO injections were applied into the tumor mass. Mice were weighted twice a week and observed for signs of distress or disorder.

Data set [35] deals with hepatocellular carcinoma cell line HepG2. Description: Cell viability assay (ATP quantitation). It is filed as cell-based. To be noted: 50 nM, 120 hrs, Lipofectamine3000 2 ul/ml, vs non-targeting control ASO. Here is the method: as §3, §4
(§6) Cell viability was compared to treatment with non-targeting control ASO-treatment. Lipofectamine3000 concentration was 2 ul/ml.

For data set [36], the system named is sarcoma cell line SK-LMS-1. As to the kind of experiment: Cell viability assay (ATP quantitation). It is filed as cell-based. The following applies: SK-LMS-1 sarcoma; 50 nM, 120 hrs; Lipofectamine3000 2 ul/ml; vs non-targeting control ASO. Here is the method:
as §3, §4, §6

Data set [37] concerns D04 xenograft tumors. Description: Intravenous in vivo treatment, D04 xenograft. To be noted: D04 tumors in mice; 700 μg twice a week, intravenous tail vein, no transfection reagent; vs non-targeting control ASO. Here is the method: as §5, with “mice, D04” for “mice D04,”, “50 1” for “501”, “right and left” for “right”, “700” for “400”, “intravenously as tail vein injections.” for “into the tumor mass.”

As for “ACATGGATTGGTAGTG (QIAGEN GapmeR, modification pattern not given here) [SEQ ID NO: 17, Antisense oligonucleotide targeting RP11-7011.3-001, 002 and 003]”, the cell viability decrease result in [1], in data set [2], in [3], in [4], in data set [5] and in [6] was “significant cell viability decrease” each time. Moreover, the cell viability decrease entry in data set [7], in data set [8], in data set [9], in data set [10], in data set [11] and in data set [12] was “significant cell viability decrease” in each case. In addition, the cell viability decrease entry in data set [13], in data set [14], in data set [15], in data set [16], in data set [17] and in [18] was “significant cell viability decrease” throughout. In addition, the cell viability decrease result in data set [19], in [20], in data set [21], in [22], in data set [23] and in [24] was “significant cell viability decrease” in each case. Further, the cell viability decrease result in data set [25], in [26], in data set [27], in data set [28], in data set [29] and in data set [30] was “significant cell viability decrease” each time. The cell viability decrease result in data set [31], in data set [32] and in [33] was “significant cell viability decrease” in each case.

For “TGCGCGGCGGAAAGAA (QIAGEN GapmeR, modification pattern not given here) [SEQ ID NO: 16, ASO targeting AC004540.4 (TRASH), intronic region of Isoform 2; used in vivo]”, the tumor growth entry in [34] and in data set [37] was “significantly reduced tumor growth” each time. In addition, the cell viability decrease entry in [1], in data set [2], in data set [3], in data set [4], in [5] and in [6] was “significant cell viability decrease” each time. Also, the cell viability decrease entry in data set [7], in [8], in data set [9], in [10], in data set [35] and in data set [36] was “significant cell viability decrease” throughout.
